Assay results: patent publication US8946282B2, “Indolin-2-one derivatives as protein kinase inhibitors” (Annji Pharmaceutical Co., Ltd., priority 2012, dated 2015)

Tests used:
FLT-3 = molecular target: T1, FLT-3 (Homo sapiens, UniProt P36888); test: radioisotope-based P81 filter-binding assay, FLT-3 kinase; format: biochemical; conditions: for IC50: averaged from two independent dose-response curves, read-out: Enzyme assay IC50 FLT-3; for inhibition at 1 µM: compound at 1.0 μM, mean values (n=2), read-out: percent inhibition of enzyme catalytic activity, FLT-3 (numbers in parentheses)
T1 sequence (P36888 27-993): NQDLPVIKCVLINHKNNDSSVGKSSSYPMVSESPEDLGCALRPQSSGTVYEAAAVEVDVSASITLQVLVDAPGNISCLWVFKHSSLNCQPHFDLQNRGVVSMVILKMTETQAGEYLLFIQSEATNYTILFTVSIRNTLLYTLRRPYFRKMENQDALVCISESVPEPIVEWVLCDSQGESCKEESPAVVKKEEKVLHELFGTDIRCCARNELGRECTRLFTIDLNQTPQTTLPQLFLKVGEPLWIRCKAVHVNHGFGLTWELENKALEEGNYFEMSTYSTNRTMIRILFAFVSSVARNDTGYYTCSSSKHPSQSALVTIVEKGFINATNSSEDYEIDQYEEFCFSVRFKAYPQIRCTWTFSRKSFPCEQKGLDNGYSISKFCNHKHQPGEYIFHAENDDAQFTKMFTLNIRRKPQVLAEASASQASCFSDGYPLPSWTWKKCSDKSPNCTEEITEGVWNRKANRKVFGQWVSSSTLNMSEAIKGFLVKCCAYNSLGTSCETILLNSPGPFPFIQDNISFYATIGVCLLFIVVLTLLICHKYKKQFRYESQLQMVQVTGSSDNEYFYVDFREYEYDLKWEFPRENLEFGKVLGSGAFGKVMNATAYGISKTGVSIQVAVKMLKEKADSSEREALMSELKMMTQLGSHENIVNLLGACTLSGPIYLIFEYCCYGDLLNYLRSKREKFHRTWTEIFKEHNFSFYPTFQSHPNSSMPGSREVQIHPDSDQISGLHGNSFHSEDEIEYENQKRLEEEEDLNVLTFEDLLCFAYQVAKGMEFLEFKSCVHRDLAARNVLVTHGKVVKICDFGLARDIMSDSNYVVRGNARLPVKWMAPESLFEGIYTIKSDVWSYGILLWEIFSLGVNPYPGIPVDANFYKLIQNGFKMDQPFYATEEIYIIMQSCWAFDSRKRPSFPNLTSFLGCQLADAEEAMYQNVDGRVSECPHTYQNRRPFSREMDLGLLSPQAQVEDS
Procedure: (§1) Compounds of formula (I)-(IV) were evaluated for abilities in inhibiting protein kinases aurora B and FLT-3 activity using radioisotope-based P81 filter-binding assay (Table 1).

aurora B = aurora B (Homo sapiens, UniProt Q96GD4); test: radioisotope-based P81 filter-binding assay, aurora B kinase; format: biochemical; conditions: for IC50: averaged from two independent dose-response curves, read-out: Enzyme assay IC50 Aur B; for inhibition at 1 µM: compound at 1.0 μM, mean values (n=2), read-out: percent inhibition of enzyme catalytic activity, Aur B (numbers in parentheses)
Procedure: as §1

aurora B, sequence (Q96GD4 whole entry): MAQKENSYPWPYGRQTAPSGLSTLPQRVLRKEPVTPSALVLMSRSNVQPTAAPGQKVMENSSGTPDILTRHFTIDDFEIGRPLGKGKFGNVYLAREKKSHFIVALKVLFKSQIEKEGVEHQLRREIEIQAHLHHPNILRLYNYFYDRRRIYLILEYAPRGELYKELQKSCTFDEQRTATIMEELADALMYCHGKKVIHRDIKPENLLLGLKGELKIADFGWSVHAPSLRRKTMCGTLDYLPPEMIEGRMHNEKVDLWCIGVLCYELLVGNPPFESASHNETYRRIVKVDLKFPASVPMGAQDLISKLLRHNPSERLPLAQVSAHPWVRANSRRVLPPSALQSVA

Structure (SMILES)	IC50 (FLT-3)	IC50 (aurora B)	melting point	inhibition at 1 µM (FLT-3)	inhibition at 1 µM (aurora B)
Cc1[nH]c(/C=C2\C(=O)Nc3cc(NC(=O)c4c[nH]cc(C)c4=O)ccc32)c(C)c1C(=O)O [D143, (Z)-2,4-dimethyl-5-((6-(5-methyl-4-oxo-1,4-dihydropyridine-3-carboxamido)-2-oxoindolin-3-ylidene)methyl)-1H-pyrrole-3-carboxylic acid]	194 nM	3.7 nM	> 300 °C		
Cc1c[nH]cc(C(=O)Nc2ccc3c(c2)NC(=O)/C3=C\c2ccc[nH]2)c1=O [D139, (Z)—N-(3-((1H-pyrrol-2-yl)methylene)-2-oxoindolin-6-yl)-5-methyl-4-oxo-1,4-dihydropyridine-3-carboxamide]	64.2 nM	29.2 nM	> 300 °C		
CN(C)c1ccc(N2CCN(C(=O)Nc3ccc4c(c3)NC(=O)/C4=C\c3ccc[nH]3)C2=O)cc1 [D93, (Z)—N-(3-((1H-pyrrol-2-yl)methylene)-2-oxoindolin-6-yl)-3-(4-(dimethylamino)-phenyl)-2-oxoimidazolidine-1-carboxamide]	1220 nM	24.2 nM	279 to 284 °C (dec.)		
Cc1cc(C(=O)O)[nH]c1/C=C1\C(=O)Nc2cc(NC(=O)c3c[nH]cc(-c4ccc(F)cc4)c3=O)ccc21 [D146, (Z)-5-((6-(5-(4-fluorophenyl)-4-oxo-1,4-dihydropyridine-3-carboxamido)-2-oxoindolin-3-ylidene)methyl)-4-methyl-1H-pyrrole-2-carboxylic acid]	> 1000 nM	> 1000 nM	243 °C		
COc1ccc(N2CCN(C(=O)Nc3ccc4c(c3)NC(=O)/C4=C\c3[nH]c(C)c(C(=O)O)c3C)C2=O)cc1 [D95, (Z)-5-((6-(3-(4-methoxyphenyl)-2-oxoimidazolidine-1-carboxamido)-2-oxoindolin-3-ylidene)methyl)-2,4-dimethyl-1H-pyrrole-3-carboxylic acid]	39.4 nM	3.7 nM	267 to 272 °C (dec.)		
O=C1Nc2c(NC(=O)c3cccn(-c4ccc(F)cc4)c3=O)cccc2/C1=C/c1ccc[nH]1 [D118, (Z)—N-(3-((1H-pyrol-2-yl)methylene)-2-oxoindolin-7-yl)-1-(4-fluorophenyl)-2-oxo-1,2-dihydropyridine-3-carboxamide]	> 1000 nM	> 1000 nM	> 300 °C		
Cc1[nH]c(/C=C2\C(=O)Nc3cc(NC(=O)N4CCN(C5CC5)C4=O)ccc32)c(C)c1C(=O)O [D96, (Z)-5-((6-(3-cyclopropyl-2-oxoimidazolidine-1-carboxamido)-2-oxoindolin-3-ylidene)methyl)-2,4-dimethyl-1H-pyrrole-3-carboxylic acid]	217 nM	3.5 nM	> 300 °C		
O=C(NC(=O)c1ccccc1F)Nc1ccc2c(c1)NC(=O)/C2=C\c1ccc[nH]1 [D52, (Z)—N-(3-((1H-pyrrol-2-yl)methylene)-2-oxoindolin-6-ylcarbamoyl)-2-fluorobenzamide]	> 1000 nM	6.5 nM	276 to 281 °C (dec.)		
COc1ccc(-c2c[nH]cc(C(=O)Nc3ccc4c(c3)NC(=O)/C4=C\c3[nH]c(C)c(C(=O)N4CCN(C)CC4)c3C)c2=O)cc1 [D154]	1.2 nM	135 nM	235 °C (dec.)		
Cc1[nH]c(/C=C2\C(=O)Nc3cc(NC(=O)NC(=O)c4ccccc4)ccc32)c(C)c1C(=O)O [D32, (Z)-5-((6-(3-benzoylureido)-2-oxoindolin-3-ylidene)methyl)-2,4-dimethyl-1H-pyrrole-3-carboxylic acid]	904 nM	2.1 nM	270 to 275 °C (dec.)		
COc1ccc(C(=O)NC(=O)Nc2ccc3c(c2)NC(=O)/C3=C\c2ccccn2)cc1 [D20, (Z)-4-methoxy-N-(2-oxo-3-(pyridin-2-ylmethylene)indolin-6-ylcarbamoyl)benzamide]	> 1000 nM		268 to 273 °C (dec.)		28.7%
COc1ccc(C(=O)NC(=O)Nc2ccc3c(c2)NC(=O)/C3=C\c2[nH]c(C)c(CC(=O)O)c2C)cc1 [D46]	31.7 nM	1.8 nM	240 to 245 °C (dec.)		
COc1ccc(C(=O)NC(=O)Nc2ccc3c(c2)NC(=O)/C3=C/c2ccccc2)cc1 [D17, (E)-N-(3-benzylidene-2-oxoindolin-6-ylcarbamoyl)-4-methoxybenzamide]			277 to 282 °C (dec.)	34.4%	61.2%
O=C1Nc2cccc(NC(=O)c3cccn(-c4ccc(F)cc4)c3=O)c2/C1=C/c1ccc[nH]1 [D103, (Z)—N-(3-((1H-pyrrol-2-yl)methylene)-2-oxoindolin-4-yl)-1-(4-fluorophenyl)-2-oxo-1,2-dihydropyridine-3-carboxamide]	> 1000 nM	> 1000 nM	> 300 °C		
O=C1Nc2cc(NC(=O)c3cccn(CCO)c3=O)ccc2/C1=C/c1ccc[nH]1 [D117, (Z)—N-(3-((1H-pyrrol-2-yl)methylene)-2-oxoindolin-6-yl)-1-(2-hydroxyethyl)-2-oxo-1,2-dihydropyridine-3-carboxamide]	612 nM	32.5 nM	298 °C (dec.)		
Cc1ccc(N2CCN(C(=O)Nc3ccc4c(c3)NC(=O)/C4=C\c3ccc[nH]3)C2=O)cc1 [D92, (Z)—N-(3-((1H-pyrrol-2-yl)methylene)-2-oxoindolin-6-yl)-2-oxo-3-p-tolylimida-zolidine-1-carboxamide]	223 nM	19.3 nM	> 300 °C		

Second part, the molecule after the results:

IC50 (FLT-3)	IC50 (aurora B)	melting point	inhibition at 1 µM (FLT-3)	inhibition at 1 µM (aurora B)	Structure (SMILES)
115 nM	2.1 nM	> 300 °C			COc1cc(OC)cc(C(=O)NC(=O)Nc2ccc3c(c2)NC(=O)/C3=C\c2[nH]c(C)c(C(=O)O)c2C)c1 [D42, (Z)-5-((6-(3-(3,5-dimethoxybenzoyl)ureido)-2-oxoindolin-3-ylidene)methyl)-2,4-dimethyl-1H-pyrrole-3-carboxylic acid]
111 nM	2.3 nM	295 to 300 °C (dec.)			COc1ccc(C(=O)NC(=O)Nc2ccc3c(c2)NC(=O)/C3=C\c2[nH]c(C)c(C(=O)O)c2C)c(F)c1 [D57, (Z)-5-((6-(3-(2-fluoro-4-methoxybenzoyl)ureido)-2-oxoindolin-3-ylidene)methyl)-2,4-dimethyl-1H-pyrrol-3-carboxylic acid]
2980 nM	1720 nM	278 to 283 °C (dec.)			CCOC(=O)c1c(C)[nH]c(/C=C2\C(=O)Nc3cc(NC(=O)NC(=O)c4ccc(OC)cc4F)ccc32)c1C [D62, (Z)-ethyl-5-((6-(3-(2-fluoro-4-methoxybenzoyl)ureido)-2-oxoindolin-3-ylidene)methyl)-2,4-dimethyl-1H-pyrrole-3-carboxylate]
		278 to 283 °C (dec.)	6.1%	12.8%	COc1ccc(C(=O)NC(=O)Nc2ccc3c(c2)NC(=O)/C3=C/c2ccc(Cl)cc2)cc1 [D18, (E)-N-(3-(4-chlorobenzylidene)-2-oxoindolin-6-ylcarbamoyl)-4-methoxybenz-amide]
74.1 nM	37.9 nM	> 300 °C			O=C1Nc2cc(NC(=O)N3CCN(c4ccc(F)cc4)C3=O)ccc2/C1=C/c1ccc[nH]1 [D89, (Z)—N-(3-((1H-pyrrol-2-yl)methylene)-2-oxoindolin-6-yl)-3-(4-fluorophenyl)-2-oxoimidazolidine-1-carboxamide]
70.6 nM	1100 nM	267 to 272 °C (dec.)			CN1CCN(C(=O)Nc2ccc3c(c2)NC(=O)/C3=C\c2ccc[nH]2)C1=O [D80, (Z)—N-(3-((1H-pyrrol-2-yl)methylene)-2-oxoindolin-6-yl)-3-methyl-2-oxoimidazolidine-1-carboxamide]
498 nM	824 nM	> 300 °C			O=C1Nc2cc(NC(=O)N3CCN(c4ccc(C(F)(F)F)cc4)C3=O)ccc2/C1=C/c1ccc[nH]1 [D88, (Z)—N-(3-((1H-pyrrol-2-yl)methylene)-2-oxoindolin-6-yl)-2-oxo-3-(4-(trifluoromethyl)phenyl)imidazolidine-1-carboxamide]
